# Measurements from patent US10093630B2, “Pyrazole compounds and methods of making and using same” (ABIDE THERAPEUTICS, INC., priority 2014, dated 2018).
# Where two headings read alike, the source gives them in different places.
# Columns and labels:
# Test in all cases: In vitro competitive activity-based protein profiling (gel-based, FP-Rh or HT-01 probe)
# Type in all cases: biochemical
# MAGL = target: T1, MAGL (Mus musculus, UniProt O35678); settings: for inhibition at 1 µM: 1 μM inhibitor; for inhibition at 10 µM: 10 μM inhibitor; for IC50: mouse brain membrane fraction or cell lysates, 30 min preincubation at 37° C., read-out: Mouse (IC50 value, nM) MAGL
# T1 construct: Proteomes (mouse brain membrane fraction or cell lysates); from tissue; host or cells: mouse brain membrane fraction (or cell lysates, not specified)
# T1 sequence (O35678 1-303): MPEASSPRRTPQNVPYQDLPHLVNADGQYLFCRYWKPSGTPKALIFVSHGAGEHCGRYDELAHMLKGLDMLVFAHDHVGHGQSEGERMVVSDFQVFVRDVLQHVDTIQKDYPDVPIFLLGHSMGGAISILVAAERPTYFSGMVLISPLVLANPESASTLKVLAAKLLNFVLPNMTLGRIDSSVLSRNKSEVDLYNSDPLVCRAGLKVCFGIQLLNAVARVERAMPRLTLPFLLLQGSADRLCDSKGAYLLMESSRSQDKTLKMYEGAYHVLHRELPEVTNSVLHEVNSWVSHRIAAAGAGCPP
# How it was run: (§1)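 Steps: inhibitor dilutions + proteome (1.0 mg/mL), 30 min, 37° C; add FP-Rh or HT-01 (50 μM DMSO stock), 30 min, 37° C; quench in SDS buffer; SDS-PAGE; gel imaging; band densitometry.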
# ABHD6 = target: T2, ABHD6 (Mus musculus, UniProt Q8R2Y0); settings: for inhibition at 1 µM: 1 μM inhibitor, read-out: % Inhibition at 1 μM, C = ABHD6; for inhibition at 10 µM: 10 μM inhibitor, read-out: % Inhibition at 10 μM, C = ABHD6; for IC50: mouse brain membrane fraction or cell lysates, 30 min preincubation at 37° C., read-out: Mouse (IC50 value, nM) ABHD6
# T2 construct: Proteomes (mouse brain membrane fraction or cell lysates); from tissue; host or cells: mouse brain membrane fraction (or cell lysates, not specified)
# T2 sequence (Q8R2Y0 1-336): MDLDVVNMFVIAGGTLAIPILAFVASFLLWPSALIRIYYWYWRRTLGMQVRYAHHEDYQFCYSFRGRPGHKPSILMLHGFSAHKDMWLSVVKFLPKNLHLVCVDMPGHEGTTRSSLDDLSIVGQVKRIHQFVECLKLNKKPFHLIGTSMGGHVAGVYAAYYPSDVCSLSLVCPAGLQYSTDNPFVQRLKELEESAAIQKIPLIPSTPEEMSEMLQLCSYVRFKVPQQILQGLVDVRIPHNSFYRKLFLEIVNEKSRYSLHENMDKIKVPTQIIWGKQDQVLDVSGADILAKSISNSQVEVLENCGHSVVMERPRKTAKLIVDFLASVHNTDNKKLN
# How it was run: as §1
# PLA2G7 = target: T3, PLA2G7 (Mus musculus, UniProt Q60963); settings: for inhibition at 1 µM: 1 μM inhibitor, read-out: % Inhibition at 1 μM, D = PLA2G7; for inhibition at 10 µM: 10 μM inhibitor, read-out: % Inhibition at 10 μM, D = PLA2G7
# T3 construct: Proteomes (mouse brain membrane fraction or cell lysates); from tissue; host or cells: mouse brain membrane fraction (or cell lysates, not specified)
# T3 sequence (Q60963 22-440): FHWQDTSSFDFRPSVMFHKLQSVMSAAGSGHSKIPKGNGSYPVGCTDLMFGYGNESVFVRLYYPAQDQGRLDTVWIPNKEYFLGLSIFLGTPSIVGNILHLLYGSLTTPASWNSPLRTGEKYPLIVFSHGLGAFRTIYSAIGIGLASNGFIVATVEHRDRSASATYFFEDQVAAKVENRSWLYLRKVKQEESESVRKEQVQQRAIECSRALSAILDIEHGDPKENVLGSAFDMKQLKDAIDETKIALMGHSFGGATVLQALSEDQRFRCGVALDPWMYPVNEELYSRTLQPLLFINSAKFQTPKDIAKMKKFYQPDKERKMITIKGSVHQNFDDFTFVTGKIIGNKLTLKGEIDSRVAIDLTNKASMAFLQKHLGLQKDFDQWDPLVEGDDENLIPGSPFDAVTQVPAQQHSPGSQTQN
# How it was run: as §1
# FAAH = target: T4, FAAH (Mus musculus, UniProt O08914); settings: for inhibition at 1 µM: 1 μM inhibitor, read-out: % Inhibition at 1 μM, B = FAAH; for inhibition at 10 µM: 10 μM inhibitor, read-out: % Inhibition at 10 μM, B = FAAH; for IC50: mouse brain membrane fraction or cell lysates, 30 min preincubation at 37° C., read-out: Mouse (IC50 value, nM) FAAH
# T4 construct: Proteomes (mouse brain membrane fraction or cell lysates); from tissue; host or cells: mouse brain membrane fraction (or cell lysates, not specified)
# T4 sequence (O08914 1-579): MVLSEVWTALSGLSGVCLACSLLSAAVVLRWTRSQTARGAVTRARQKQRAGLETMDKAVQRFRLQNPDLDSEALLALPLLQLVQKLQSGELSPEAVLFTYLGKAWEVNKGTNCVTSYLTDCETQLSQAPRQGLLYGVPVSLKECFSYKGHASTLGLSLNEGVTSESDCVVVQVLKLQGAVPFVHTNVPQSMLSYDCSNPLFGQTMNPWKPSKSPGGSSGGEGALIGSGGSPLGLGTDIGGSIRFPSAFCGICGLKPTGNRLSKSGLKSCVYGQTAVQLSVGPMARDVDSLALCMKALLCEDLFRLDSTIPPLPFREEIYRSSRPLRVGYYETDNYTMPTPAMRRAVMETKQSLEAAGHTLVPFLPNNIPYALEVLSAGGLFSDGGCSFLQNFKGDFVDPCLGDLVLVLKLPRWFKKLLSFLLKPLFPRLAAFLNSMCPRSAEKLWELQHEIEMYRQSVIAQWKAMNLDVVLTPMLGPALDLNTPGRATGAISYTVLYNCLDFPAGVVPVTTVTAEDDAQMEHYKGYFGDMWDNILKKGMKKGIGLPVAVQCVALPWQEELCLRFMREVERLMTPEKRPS
# How it was run: as §1
Structure (SMILES),inhibition at 1 µM (MAGL) [%],inhibition at 10 µM (MAGL) [%],inhibition at 1 µM (ABHD6) [%],inhibition at 10 µM (ABHD6) [%],inhibition at 1 µM (PLA2G7) [%],inhibition at 10 µM (PLA2G7) [%],inhibition at 1 µM (FAAH) [%],inhibition at 10 µM (FAAH) [%],further results
"O=C(c1cnn(C(=O)N2CCN(Cc3ccc4c(c3)OCO4)CC2)c1)N1CCC1 [Example 86, Azetidin-1-yl(1-(4-(benzo[d][1,3]dioxol-5-ylmethyl)piperazine-1-carbonyl)-1H-pyrazol-4-yl)methanone]",< 25,> 75,25 to 75,> 75,< 25,> 75,> 75,> 75,–
"Cc1cc(-c2ccccc2)ccc1CN1CCN(C(=O)n2cc(C(=O)N3CCCC3)cn2)CC1 [Example 85, (4-((3-Methyl-[1,1′-biphenyl]-4-yl)methyl)piperazin-1-yl)(4-(pyrrolidine-1-carbonyl)-1H-pyrazol-1-yl)methanone]",> 75,> 75,> 75,> 75,< 25,> 75,> 75,> 75,IC50 (MAGL): 100 to 1000 nM; IC50 (ABHD6): 100 to 1000 nM; IC50 (FAAH): < 100 nM
"O=C(c1cnn(C(=O)N2CCN(Cc3ccncn3)CC2)c1)N1CCCC1 [Example 82, (4-(Pyrimidin-4-ylmethyl)piperazin-1-yl)(4-(pyrrolidine-1-carbonyl)-1H-pyrazol-1-yl)methanone]",–,< 25,< 25,> 75,< 25,> 75,–,25 to 75,–
"CCN(Cc1ccc(Cl)cc1)C(=O)n1cc(C)cn1 [Example 254, N-(4-Chlorobenzyl)-N-ethyl-4-methyl-1H-pyrazole-1-carboxamide]",–,–,–,–,–,–,–,–,inhibition at 1 µM (MAGL; gel-based competitive ABPP): < 25%; inhibition at 1 µM (ABHD6; gel-based competitive ABPP): < 25%; inhibition at 1 µM (PLA2G7; gel-based competitive ABPP): < 25%; inhibition at 1 µM (FAAH; gel-based competitive ABPP): < 25%
"CCN(Cc1cccc(OC)c1)C(=O)n1cc(C(F)(F)F)cn1 [Example 250, N-Ethyl-N-(3-methoxybenzyl)-4-(trifluoromethyl)-1H-pyrazole-1-carboxamide]",–,–,–,–,–,–,–,–,inhibition at 1 µM (MAGL; gel-based competitive ABPP): > 75%; inhibition at 10 µM (MAGL; gel-based competitive ABPP): > 75%; IC50 (MAGL): > 1000 nM; inhibition at 1 µM (ABHD6; gel-based competitive ABPP): 25 to 75%; inhibition at 10 µM (ABHD6; gel-based competitive ABPP): > 75%; IC50 (ABHD6): > 1000 nM; inhibition at 1 µM (PLA2G7; gel-based competitive ABPP): < 25%; inhibition at 10 µM (PLA2G7; gel-based competitive ABPP): > 75%; inhibition at 1 µM (FAAH; gel-based competitive ABPP): > 75%; inhibition at 10 µM (FAAH; gel-based competitive ABPP): > 75%; IC50 (FAAH): < 100 nM
"CCN(Cc1ccc(OC)cc1)C(=O)n1cc(C)cn1 [Example 260, N-Ethyl-N-(4-methoxybenzyl)-4-methyl-1H-pyrazole-1-carboxamide]",–,–,–,–,–,–,–,–,inhibition at 1 µM (MAGL; gel-based competitive ABPP): < 25%; inhibition at 1 µM (ABHD6; gel-based competitive ABPP): < 25%; inhibition at 1 µM (PLA2G7; gel-based competitive ABPP): < 25%; inhibition at 1 µM (FAAH; gel-based competitive ABPP): < 25%
"CN(CCN(C)S(C)(=O)=O)C(=O)n1cc(Cl)cn1 [Example 198, 4-Chloro-N-methyl-N-(2-(N-methylmethylsulfonamido)ethyl)-1H-pyrazole-1-carboxamide]",–,< 25,–,< 25,–,< 25,–,< 25,–

# The next lines start with results.
inhibition at 1 µM (MAGL) [%],inhibition at 10 µM (MAGL) [%],inhibition at 1 µM (ABHD6) [%],inhibition at 10 µM (ABHD6) [%],inhibition at 1 µM (PLA2G7) [%],inhibition at 10 µM (PLA2G7) [%],inhibition at 1 µM (FAAH) [%],inhibition at 10 µM (FAAH) [%],Structure (SMILES),further results
25 to 75,> 75,< 25,25 to 75,> 75,> 75,< 25,> 75,"O=C(c1ccccc1)N1CCN(C(=O)n2cc(Cl)cn2)CC1 [Example 187, (4-Benzoylpiperazin-1-yl)(4-chloro-1H-pyrazol-1-yl)methanone]",–
–,25 to 75,–,25 to 75,–,< 25,–,< 25,"Cc1cnn(C(=O)N2CCCN(C(=O)c3ccccc3)CC2)c1 [Example 169, (4-Benzoyl-1,4-diazepan-1-yl)(4-methyl-1H-pyrazol-1-yl)methanone]",–
> 75,–,25 to 75,–,< 25,–,> 75,–,"CCN(Cc1cccc(N2CCOCC2)c1)C(=O)n1cc(C#N)cn1 [Example 242, 4-Cyano-N-ethyl-N-(3-morpholinobenzyl)-1H-pyrazole-1-carboxamide]",–
–,< 25,–,25 to 75,–,> 75,–,> 75,"O=C(c1cnn(C(=O)N2CCN(Cc3ccccn3)CC2)c1)N1CCC1 [Example 89, Azetidin-1-yl(1-(4-(pyridin-2-ylmethyl)piperazine-1-carbonyl)-1H-pyrazol-4-yl)methanone]",–
< 25,< 25,> 75,> 75,> 75,> 75,< 25,> 75,"O=C(c1cnn(C(=O)N2CCN(Cc3nccs3)CC2)c1)N1CCCCC1 [Example 74, Piperidin-1-yl(1-(4-(thiazol-2-ylmethyl)piperazine-1-carbonyl)-1H-pyrazol-4-yl)methanone]",–
–,< 25,–,> 75,–,> 75,–,25 to 75,"O=C(c1cnn(C(=O)N2CCN(Cc3cccnc3)CC2)c1)N1CCC1 [Example 88, Azetidin-1-yl(1-(4-(pyridin-3-ylmethyl)piperazine-1-carbonyl)-1H-pyrazol-4-yl)methanone]",–
< 25,< 25,< 25,> 75,25 to 75,> 75,< 25,25 to 75,"CC(=O)N1CCCN(C(=O)n2cc(C(F)(F)F)cn2)CC1 [Example 154, 1-(4-(4-(trifluoromethyl)-1H-pyrazole-1-carbonyl)-1,4-diazepan-1-yl)ethanone]",–
–,< 25,–,< 25,–,< 25,–,< 25,"Cc1cnn(C(=O)NCCCCCc2ccccc2)c1 [Example 38, 4-Methyl-N-(5-phenylpentyl)-1H-pyrazole-1-carboxamide]",–
